Where a name gives a salt, the structure may show the parent alone. Read-outs that look alike come from different tables or passages of the source.

These results are taken from paper PMC7245249 (Biomedical Journal, 2020).

Series [1] is described as follows: in vitro. The conditions noted are these: human.
In the next series the test system is Human coronavirus OC43. Nature of the series: microbe, parasite or virus in culture. In kind it is cell-based, Human coronavirus OC43 (HCoV-OC43). Conditions: for EC50: read-out: EC50 (IFA), Human coronavirus OC43; for Selectivity index, Human coronavirus OC43: CC50/EC50 in HCT-8 cells.
Series [2] in a line: in vitro. The conditions noted are these: cat (Felis catus).
The subject of series [3] is Feline infectious peritonitis virus. In kind it is cell-based. The conditions noted are these: for Selectivity index, Feline infectious peritonitis virus: CC50/EC50 in Fcwf-4 cells; for EC50: read-out: EC50 (Visual assay), Feline infectious peritonitis virus.
Where [4] appears, read: Betacoronavirus 1, OC43, HCT-8, 72 h.

Consider `CCN(CC)CCCC(C)Nc1ccnc2cc(Cl)ccc12` (stereo not drawn) [Chloroquine (diphosphate), Chloroquine], for which the CC50 in the series “in vitro [1]” is > 50 µM; in “in vitro [2]”, 37.5 µM. In addition, the EC50 in the series with Human coronavirus OC43 (setting [4]) came out at 27.4 ± 2.51 µM; in series [3], 27.9 ± 0.72 µM. In the series with Human coronavirus OC43, the “Selectivity index, Human coronavirus OC43” value is given as >1.82. Moreover, the “Selectivity index, Feline infectious peritonitis virus” value in series [3] was found to be 1.35.

For the compound `CC[C@H]1/C=C/C=C/C[C@@H](C)[C@H](O)[C@@](C)(O)C(=O)[C@@H](C)[C@H](O)[C@@H](C)C(=O)[C@@H](C)[C@H](O)[C@@H](C)/C=C/C(=O)O[C@@H]2[C@H](C)[C@H](CC1)O[C@]1(CC[C@H](C)[C@H](C[C@@H](C)O)O1)[C@H]2C` [Oligomycin], the CC50 in the series “in vitro [1]” is > 50 µM; in the series “in vitro [2]” it was 18.8 µM. Besides, the EC50 in the series on Human coronavirus OC43 (setting [4]) was determined as 5.2 µM; in the series on Human coronavirus OC43, 5.22 ± 0.96 µM. Besides, the “Selectivity index, Human coronavirus OC43” value in the series with Human coronavirus OC43 is >9.58. In addition, in series [3], the “Selectivity index, Feline infectious peritonitis virus” value came out at 1.06.

Consider `COc1ccc(C[C@H]2NC[C@H](O)[C@H]2OC(C)=O)cc1` [Anisomycin], for which the EC50 was 0.2 ± 0.03 µM with Human coronavirus OC43 and 0.023 µM in series [3].

Consider `CC[C@@H](C(=O)[C@@H](C)[C@@H](O)[C@H](C)[C@@H]1O[C@@H]([C@@H](CC)C(=O)O)CC[C@@H]1C)[C@H]1O[C@]2(C=C[C@@H](O)[C@]3(CC[C@@](C)([C@H]4CC[C@](O)(CC)[C@H](C)O4)O3)O2)[C@H](C)C[C@@H]1C` [Salinomycin], for which the values for the CC50 in “in vitro [1]” and in the series “in vitro [2]” were > 50 µM and 0.34 ± 0.1 µM, respectively. In addition, the EC50 in the series with Human coronavirus OC43 (setting [4]) was 5.78 ± 2.17 µM. The “Selectivity index, Human coronavirus OC43” value in the series with Human coronavirus OC43 is >8.65. Also, the “Selectivity index, Feline infectious peritonitis virus” value in series [3] worked out at 0.49.

Turning to `Cc1nc2c([nH]1)-c1ccccc1N(C(=O)c1ccc(NC(=O)c3ccccc3-c3ccccc3)cc1)CC2` [Conivaptan], the CC50 in the series “in vitro [1]” is > 50 µM; in the series “in vitro [2]”, > 100 µM. For the same compound, the figures for the EC50 (with Human coronavirus OC43 (setting [4]); in series [3]) were 12.2 ± 4.2 µM and 16.9 ± 1.51 µM, respectively. Moreover, in the series with Human coronavirus OC43, the “Selectivity index, Human coronavirus OC43” value is reported as >4.10.

In the case of `N#C[C@@]1(c2ccc3c(N)ncnn23)O[C@H](CO)[C@@H](O)[C@H]1O` [GS-441524], the CC50 was > 50 µM in the series “in vitro [1]” and > 100 µM in the series “in vitro [2]”. Moreover, in the series on Human coronavirus OC43 (setting [4]), the EC50 was 6.77 ± 0.71 µM. Also, the “Selectivity index, Human coronavirus OC43” value in the series with Human coronavirus OC43 was >7.39.

As for `CC(C)[C@@H]1NC(=O)[C@H](C)OC(=O)[C@@H](C(C)C)NC(=O)[C@@H](C(C)C)OC(=O)[C@H](C(C)C)NC(=O)[C@H](C)OC(=O)[C@@H](C(C)C)NC(=O)[C@@H](C(C)C)OC(=O)[C@H](C(C)C)NC(=O)[C@H](C)OC(=O)[C@@H](C(C)C)NC(=O)[C@@H](C(C)C)OC1=O` [Valinomycin], the values for the CC50 in “in vitro [1]” and in the series “in vitro [2]” were > 50 µM and 3.98 ± 0.39 µM, respectively. Also, the EC50 worked out at 0.4 µM with Human coronavirus OC43 (setting [4]) and 0.41 ± 0.02 µM in the series on Human coronavirus OC43. Moreover, the “Selectivity index, Human coronavirus OC43” value with Human coronavirus OC43 was >122. The “Selectivity index, Feline infectious peritonitis virus” value in series [3] stood at 2.45.

Consider `Nc1ccn([C@@H]2O[C@H](CO)[C@@H](O)C2(F)F)c(=O)n1` [Gemcitabine (Hydrochloride), Gemcitabine], for which the CC50 in the series “in vitro [1]” was > 50 µM; in the series “in vitro [2]”, > 100 µM. Also, in the series on Human coronavirus OC43 (setting [4]), the 50% effective concentration (EC50) was determined as 38.6 ± 11.4 µM. Further, in the series on Human coronavirus OC43, the “Selectivity index, Human coronavirus OC43” value is reported as >1.30.

Take `CS(=O)(=O)c1ccc(C(=O)Nc2ccc(Cl)c(-c3ccccn3)c2)c(Cl)c1` [Vismodegib]: the CC50 was > 50 µM in “in vitro [1]” and > 100 µM in “in vitro [2]”. For the same compound, the EC50 with Human coronavirus OC43 (setting [4]) stood at 47.6 ± 3.29 µM. The “Selectivity index, Human coronavirus OC43” value with Human coronavirus OC43 was >1.05.

Consider `O=C(Nc1ccc([N+](=O)[O-])cc1Cl)c1cc(Cl)ccc1O` [Niclosamide], for which the CC50 was > 50 µM in the series “in vitro [1]” and 0.23 µM in “in vitro [2]”. Further, the EC50 in the series with Human coronavirus OC43 (setting [4]) turned out to be 1.36 ± 0.56 µM. For the same compound, the “Selectivity index, Human coronavirus OC43” value with Human coronavirus OC43 is listed as >36.8. In addition, in series [3], the “Selectivity index, Feline infectious peritonitis virus” value came to 0.80.

`CC[C@H]1CN2CCc3cc(OC)c(OC)cc3[C@@H]2C[C@@H]1C[C@H]1NCCc2cc(OC)c(OC)cc21` [Emetine]: the CC50 in “in vitro [1]” was > 50 µM; in “in vitro [2]”, 0.03 µM. The EC50 in the series on Human coronavirus OC43 (setting [4]) was 0.21 ± 0.07 µM. In addition, in the series on Human coronavirus OC43, the “Selectivity index, Human coronavirus OC43” value is recorded as >238. Further, in series [3], the “Selectivity index, Feline infectious peritonitis virus” value is 3.00.

On to `CC(=O)Oc1ccccc1C(=O)Nc1ncc([N+](=O)[O-])s1` [Nitazoxanide], for which the CC50 in “in vitro [1]” is > 50 µM; in the series “in vitro [2]”, 4.69 µM. The EC50 with Human coronavirus OC43 (setting [4]) was 28.6 ± 7.44 µM. Also, the “Selectivity index, Human coronavirus OC43” value in the series on Human coronavirus OC43 is reported as >1.75.

As to `O=C1C(O)=C([C@H]2CC[C@H](c3ccc(Cl)cc3)CC2)C(=O)c2ccccc21` [Atovaquone], the CC50 is > 50 µM in the series “in vitro [1]” and > 100 µM in “in vitro [2]”. The EC50 in the series with Human coronavirus OC43 (setting [4]) stood at 6.78 ± 0.73 µM. Moreover, the “Selectivity index, Human coronavirus OC43” value in the series on Human coronavirus OC43 is given as >7.37.

Consider `CCCCCC[C@H]1C(=O)O[C@H](C)[C@H](NC(=O)c2cccc(NC=O)c2O)C(=O)O[C@@H](C)[C@@H]1OC(=O)CC(C)C` [Antimycin A], for which the figures for the CC50 in “in vitro [1]” and in the series “in vitro [2]” were > 50 µM and 81.9 ± 6.36 µM, respectively. For the same compound, the EC50 in the series on Human coronavirus OC43 (setting [4]) amounted to 0.062 ± 0.003 µM. Besides, the “Selectivity index, Human coronavirus OC43” value in the series on Human coronavirus OC43 is given as >806. Further, the “Selectivity index, Feline infectious peritonitis virus” value in series [3] was found to be 1.10.

For `CCN(CC)CCOc1ccc2c(c1)C(=O)c1cc(OCCN(CC)CC)ccc1-2` [Tilorone (dihydrochloride), Tilorone], the figures for the CC50 in “in vitro [1]” and in the series “in vitro [2]” were 35.9 ± 2.97 µM and 9.38 µM, respectively. The EC50 in the series on Human coronavirus OC43 (setting [4]) was 26 ± 2.24 µM. For the same compound, the “Selectivity index, Human coronavirus OC43” value in the series with Human coronavirus OC43 came out at 1.38. Moreover, the “Selectivity index, Feline infectious peritonitis virus” value in series [3] is given as 0.84.

Take `COC(=O)C[C@](O)(CCCC(C)(C)O)C(=O)O[C@@H]1C(OC)=C[C@]23CCCN2CCc2cc4c(cc2[C@H]13)OCO4` [Homoharringtonine]: the CC50 in the series “in vitro [1]” was 7.61 ± 0.6 µM; in the series “in vitro [2]”, 0.049 ± 0.002 µM. In addition, the EC50 in the series on Human coronavirus OC43 (setting [4]) amounted to 0.29 ± 0.03 µM. For the same compound, the “Selectivity index, Human coronavirus OC43” value in the series on Human coronavirus OC43 was determined as 26.7. Also, the “Selectivity index, Feline infectious peritonitis virus” value in series [3] is on record as 1.58.

Usually EC50 stands for the concentration needed to bring the measured effect to its halfway point.
